24 molecules from patent US8901307B2, “Chemical compounds 251” (AstraZeneca AB, priority 2008, dated 2014) can be followed below.

Structures can show the parent of a compound that is named as a salt.

For one experiment, the target named is T1, human His-PIM1 [2-313] (Homo sapiens, UniProt P11309).
T1 construct: purified human His-PIM1 [2-313] enzyme; His (N); purchased University of Dundee, Scotland; host or cells: baculovirus system
Briefly: PIM1 in-vitro mobility shift assay (Caliper LC3000, FL-Ahx-Bad phosphorylation). To be noted: 1.5 h; percent inhibition at 0.3 uM compound; read-out: PIM1 % I at 0.3 uM. Format: biochemical. In short, it runs like this: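 Compound preincubated 20 min at 25 °C with 2.4 nM PIM1, 3.6 µM FL-Ahx-Bad peptide and 240 µM ATP (1.2× mix concentrations). Reaction started with 24 mM MgCl2 mix, run 90 min at 25 °C, EDTA-stopped. Phospho/unphospho peptide separated by microfluidic mobility shift; percent inhibition from ratiometric turnover.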

In a further experiment the target is T2, human His-PIM2 [23-299] (Homo sapiens, UniProt Q9P1W9).
T2 construct: purified human His-PIM2 [23-299] enzyme; His (N); host or cells: E. coli
T2 sequence (Q9P1W9 23-299): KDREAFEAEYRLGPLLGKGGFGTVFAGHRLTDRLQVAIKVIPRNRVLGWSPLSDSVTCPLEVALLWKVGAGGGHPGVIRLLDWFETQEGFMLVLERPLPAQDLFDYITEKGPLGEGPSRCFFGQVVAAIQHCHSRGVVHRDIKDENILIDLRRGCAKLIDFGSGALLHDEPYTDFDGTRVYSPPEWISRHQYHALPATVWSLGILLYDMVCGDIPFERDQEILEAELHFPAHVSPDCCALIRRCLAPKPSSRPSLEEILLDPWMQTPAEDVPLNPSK
Nature of the experiment: PIM2 in-vitro mobility shift assay (Caliper LC3000, FL-Ahx-Bad phosphorylation). To be noted: 1.5 h; percent inhibition at 0.3 uM compound; read-out: PIM2 % I at 0.3 uM. Type of experiment: biochemical.

T1 sequence (P11309 2-313): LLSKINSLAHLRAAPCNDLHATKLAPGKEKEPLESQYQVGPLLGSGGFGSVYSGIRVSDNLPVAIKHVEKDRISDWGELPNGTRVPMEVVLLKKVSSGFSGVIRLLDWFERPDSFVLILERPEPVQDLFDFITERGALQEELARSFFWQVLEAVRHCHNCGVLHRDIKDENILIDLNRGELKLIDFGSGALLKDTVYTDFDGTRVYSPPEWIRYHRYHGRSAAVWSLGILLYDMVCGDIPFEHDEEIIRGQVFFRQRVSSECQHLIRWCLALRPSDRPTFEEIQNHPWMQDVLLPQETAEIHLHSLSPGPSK

Turning to `COCCOc1cccc(/C=C2\SC(=O)NC2=O)c1N1CC[C@H](N)C1` [Example 122AB, (S,Z)-5-(2-(3-aminopyrrolidin-1-yl)-3-(2-methoxyethoxy)benzylidene)thiazolidine-2,4-dione hydrochloride], the inhibition at 0.3 µM at human His-PIM1 [2-313] and at human His-PIM2 [23-299] was more than 95% in each case.
Take `O=C1NC(=O)/C(=C/c2cccc(Cl)c2N2CCC[C@@H](NCCCO)C2)S1` [Example 134]: the inhibition at 0.3 µM is more than 95% at human His-PIM1 [2-313] and 85.2% on human His-PIM2 [23-299].
With `COc1cc(/C=C2\SC(=O)NC2=O)c(N2CC[C@H](NC(=O)CCCCN)C2)cc1OC` [Example 120, (S,Z)-5-amino-N-(1-(2-((2,4-dioxothiazolidin-5-ylidene)methyl)-4,5-dimethoxyphenyl)pyrrolidin-3-yl)pentanamide hydrochloride], the results for the inhibition at 0.3 µM on human His-PIM1 [2-313] and on human His-PIM2 [23-299] were 58.9% and 22.2%, respectively.
Regarding `Cn1ccc2cc(/C=C3\SC(=O)NC3=O)ccc21` [Example 76, (5Z)-5-[(1-methyl-1H-indol-5-yl)methylene]-1,3-thiazolidine-2,4-dione], the inhibition at 0.3 µM turned out to be 59.6% on human His-PIM1 [2-313] and 27.6% at human His-PIM2 [23-299].
With `CC(C)Oc1cccc(/C=C2\SC(=O)NC2=O)c1N1CC[C@H](N)C1` [Example 122P, (S,Z)-5-(2-(3-aminopyrrolidin-1-yl)-3-isopropoxybenzylidene)thiazolidine-2,4-dione hydrochloride], the inhibition at 0.3 µM on human His-PIM1 [2-313] and at human His-PIM2 [23-299] was more than 95% in each case.
In the case of `CC(=O)Nc1ccc(N2CCC(N(C)C)C2)c(/C=C2\SC(=O)NC2=O)c1` (stereo not drawn) [Example 131B], the inhibition at 0.3 µM on human His-PIM1 [2-313] and at human His-PIM2 [23-299] was less than 5% throughout.
As for `NC(=O)c1ccc(N2CCC[C@H](N)C2)c(/C=C2\SC(=O)NC2=O)c1` [Example 122AF, (S,Z)-4-(3-aminopiperidin-1-yl)-3-((2,4-dioxothiazolidin-5-ylidene)methyl)benzamide hydrochloride], the inhibition at 0.3 µM amounted to 83.9% on human His-PIM1 [2-313] and 87.9% on human His-PIM2 [23-299].
The like results for `CN(C)C1CCN(c2ccc(N)cc2/C=C2\SC(=O)NC2=O)C1` (stereo not drawn) [Example 151, (Z)-5-(5-amino-2-(3-(dimethylamino)pyrrolidin-1-yl)benzylidene)thiazolidine-2,4-dione] were, in that order, 31.5% and 13.5%.
As to `NCCC(=O)N1CCN(c2ccc(C(F)(F)F)cc2/C=C2\SC(=O)NC2=O)CC1` [Example 93, (Z)-5-(2-(4-(3-aminopropanoyl)piperazin-1-yl)-5-(trifluoromethyl)benzylidene)thiazolidine-2,4-dione hydrochloride], the values for the inhibition at 0.3 µM on human His-PIM1 [2-313] and at human His-PIM2 [23-299] were more than 95% and 66.3%, respectively.
Consider `CN(C)[C@H]1CCN(c2ccc(F)cc2C=C2SC(=O)NC2=O)C1` [Example 84K, (S)-5-(2-(3-(dimethylamino)pyrrolidin-1-yl)-5-fluorobenzylidene)thiazolidine-2,4-dione], for which the results for the inhibition at 0.3 µM on human His-PIM1 [2-313] and at human His-PIM2 [23-299] were more than 95% and 90.8%, respectively.
The like results for `CN(C)C1CCN(c2ccc([N+](=O)[O-])cc2/C=C2\SC(=O)NC2=O)C1` (stereo not drawn) [Example 56, (Z)-5-(2-(3-(dimethylamino)pyrrolidin-1-yl)-5-nitrobenzylidene)thiazolidine-2,4-dione hydrochloride] were, in that order, 90.7% and 33.5%.
On to `CNCCN1CCN(c2ccccc2/C=C2\SC(=O)NC2=O)CC1` [Example 114, (Z)-5-(2-(4-(2-(methylamino)ethyl)piperazin-1-yl)benzylidene)thiazolidine-2,4-dione hydrochloride], for which the inhibition at 0.3 µM at human His-PIM1 [2-313] and on human His-PIM2 [23-299] was more than 95% in each case.
On to `O=C1NC(=O)/C(=C/c2cc(C(F)(F)F)cc(Cl)c2N2CCC(N3CCCC3)CC2)S1` [Example 10], for which the results for the inhibition at 0.3 µM at human His-PIM1 [2-313] and at human His-PIM2 [23-299] were more than 95% and 50.1%, respectively.
In the case of `N[C@@H]1CCCN(c2c(/C=C3\SC(=O)NC3=O)cccc2OC2CCCCC2)C1` [Example 122L, hydrochloride], the inhibition at 0.3 µM on human His-PIM1 [2-313] and on human His-PIM2 [23-299] was more than 95% throughout.
As to `CN(C)CCCN(C)c1c(Cl)cc(C(F)(F)F)cc1/C=C1\SC(=O)NC1=O` [Example 25], the inhibition at 0.3 µM on human His-PIM1 [2-313] is more than 95%; at human His-PIM2 [23-299] it was 68.4%.
The like results for `O=C1NC(=O)/C(=C/c2cc(C(F)(F)F)cc(Cl)c2N2CCN(C3CCCC3)CC2)S1` [Example 6, (Z)-5-(3-chloro-2-(4-cyclopentylpiperazin-1-yl)-5 (trifluoromethyl)benzylidene)thiazolidine-2,4-dione hydrochloride] were, in that order, 79.4% and 9.5%.
On to `CN(C)[C@H]1CCN(c2c(Cl)cc(C(F)(F)F)cc2/C=C2\SC(=O)NC2=O)C1` [Example 14], for which the inhibition at 0.3 µM at human His-PIM1 [2-313] is more than 95%; at human His-PIM2 [23-299], 69.9%.
Consider `C[C@@H]1CN(c2ccc(C(F)(F)F)cc2/C=C2\SC(=O)NC2=O)C[C@H](C)N1` [Example 34, (Z)-5-(2-((3S,5R)-3,5-dimethylpiperazin-1-yl)-5-(trifluoromethyl)benzylidene)thiazolidine-2,4-dione hydrochloride], for which the inhibition at 0.3 µM at human His-PIM1 [2-313] was more than 95%; at human His-PIM2 [23-299], 39.3%.
Consider `Cn1ccnc1C(=O)N[C@H]1CCN(c2c(Cl)cccc2/C=C2\SC(=O)NC2=O)C1` [Example 135, (S,Z)-N-(1-(2-chloro-6-((2,4-dioxothiazolidin-5-ylidene)methyl)phenyl)pyrrolidin-3-yl)-1-methyl-1H-imidazole-2-carboxamide], for which the results for the inhibition at 0.3 µM at human His-PIM1 [2-313] and at human His-PIM2 [23-299] were 42.5% and 10.8%, respectively.
`NCCCN[C@H]1CCN(c2c(Cl)cccc2/C=C2\SC(=O)NC2=O)C1` [Example 125]: the inhibition at 0.3 µM at human His-PIM1 [2-313] and at human His-PIM2 [23-299] was more than 95% each time.
Take `COc1cc(/C=C2\SC(=O)NC2=O)c(N2CCC(NCCCN)C2)cc1OC` (stereo not drawn) [Example 126]: the inhibition at 0.3 µM at human His-PIM1 [2-313] and at human His-PIM2 [23-299] was more than 95% each time.
`COc1ccc(OCCCNC(C)C)c(C=C2SC(=O)NC2=O)c1` [Example 150]: the figures for the inhibition at 0.3 µM at human His-PIM1 [2-313] and at human His-PIM2 [23-299] were 79.8% and 31.7%, respectively.
Turning to `CC1CCN(c2c(Cl)cccc2/C=C2\SC(=O)NC2=O)CC1N` (stereo not drawn) [Example 122V, (Z)-5-(2-(3-amino-4-mnethylpiperidin-1-yl)-3-chlorobenzylidene)thiazolidine-2,4-dione hydrochloride], the inhibition at 0.3 µM at human His-PIM1 [2-313] and on human His-PIM2 [23-299] was more than 95% each time.
As to `COc1ccc(OCCN2CCCCC2)c(/C=C2\SC(=O)NC2=O)c1` [Example 61, (Z)-5-(5-methoxy-2-(2-(piperidin-1-yl)ethoxy)benzylidene)thiazolidine-2,4-dione], the inhibition at 0.3 µM on human His-PIM1 [2-313] was determined as 81.8%; at human His-PIM2 [23-299] it was 28.1%.
